# Measurements from PMC10584882 (Communications Biology, 2023).
# Values joined by “and” are separate entries in the source; they are usually repeats but may differ in a detail not shown here. Equal entries are not always repeated. “Also recorded” adds a separate entry of the source.
# How the values were obtained:
# [1] = tested on: SARS-CoV-2; assay: Cytopathic effect inhibition assay in LC-HK2 cells; format: cell-based; settings: LC-HK2
# [2] = tested on: LC-HK2 cells; assay: Fluorescence microscopy, S-protein vesicle size in infected LC-HK2 cells; format: cell-based, human; settings: 1.5 µM, versus control
# Protocol: LC-HK2 was cultivated on coverslips (13 mm diameter) to approximately 80% confluence. The cells were pre-treated for 2 h with 1.5 µM of S-Calpeptin diluted in DMEM supplemented with 2.5% FBS. The compounds were removed, and SARS-CoV-2 strain diluted in DMEM supplemented with 2.5% FBS was added to LC-HK2 cells at M.O.I of 0.05, allowing absorption for 1 h. The viral inoculum was removed, and cells were gently washed with PBS without calcium and magnesium. The cells were incubated in the continued presence of 1.5 µM of S-Calpeptin diluted in DMEM supplemented with 2.5% FBS and were examined by fluorescence microscopy at the time points 32, 40, 48, 56, 64 and 72 h post-infection.
# For this purpose, the cells were fixed and permeabilized with 3.7% formaldehyde solution (Sigma-Aldrich, F1635) containing 0.2% Triton X-100 in PBS 1×. […] The images were captured using fluorescence range intensity adjusted identically within each experimental series.
# Vesicles size quantifications were obtained from 2D maximum projections of Z stacks exported as grayscale TIFs (16-bit depth) using Automated Image Analysis in Zen 2.6 blue software (ZEISS). […]
# In the Fluorescence microscopy evaluation, the P-values were generated by unpaired t-test using GraphPad Prism version 8.00 (La Jolla, CA, USA, www.graphpad.com). […]
# [3] = tested on: SARS-CoV-2; assay: Viral loading determination via RT-qPCR in LC-HK2 cells; format: cell-based; settings: for Viral titer (% control): LC-HK2, RT-qPCR
# [4] = tested on: SARS-CoV-2; assay: Anti-viral experiment with Golden Syrian hamsters: viral load in lungs and trachea; format: in vivo, Golden Syrian hamsters (Mesocricetus auratus); settings: 1 mg/kg s.c. daily from day 1; for RNA - lung / RNA - trachea / titer - lung / titer - trachea: individual hamsters; for viral load in trachea versus untreated group (in words): TCID50
smiles,measurement,setting,value
CCCC[C@H](NC(=O)[C@H](CC(C)C)NC(=O)OCc1ccccc1)C(O)S(=O)(=O)[O-].[Na+] (stereo partly drawn) [S-Calpeptin],CPE inhibition (%),"[1]; 0.000000000001 μM (second line, r19)",0%
same,CPE inhibition (%),[1]; 0.00000000001 μM,0%
same,CPE inhibition (%),[1]; 0.0000000001 μM,0%
same,CPE inhibition (%),[1]; 0.000000001 μM,0%
same,CPE inhibition (%),"[1]; 0.00000001 μM, listed as S-Calpepin, 10 fM",4.03% and 3.04%
same,CPE inhibition (%),"[1]; 0.0000001 μM, listed as S-Calpepin, 100 fM",0% and 1.04%
same,CPE inhibition (%),"[1]; 0.000001 μM, listed as S-Calpepin, 1 pM",0% and 4.71%
same,CPE inhibition (%),"[1]; 0.00001 μM, listed as S-Calpepin, 10 pM",5.52% and 8.92%
same,CPE inhibition (%),"[1]; 0.0001 μM, listed as S-Calpepin",7.19% and 6.77%
same,CPE inhibition (%),"[1]; 0.001 μM, listed as S-Calpepin",23.15% and 18.35%
same,CPE inhibition (%),"[1]; 0.01 μM, listed as S-Calpepin",22.53% and 19.69%
same,CPE inhibition (%),"[1]; 0.1 μM, listed as S-Calpepin",56.52% and 41.43%
same,CPE inhibition (%),"[1]; 1 μM, listed as S-Calpepin",87.89% and 72.23%
same,CPE inhibition (%),"[1]; 10 μM, listed as S-Calpepin",85.17% and 78.3%
same,impact on vesicle morphology / S-protein vesicle size,[2],did not reveal significant differences; also recorded: no substantial impact on vesicle morphology
same,EC50,"[3]; LC-HK2, RT-qPCR, 72 h post-infection, read-out: Viral titer EC50",630 nM
same,Viral titer (% control),[3]; 0.0006 μM,100 % control
same,Viral titer (% control),[3]; 0.0012 μM,100 % control
same,Viral titer (% control),[3]; 0.0024 μM,100 % control
same,Viral titer (% control),[3]; 0.0049 μM,100 % control
same,Viral titer (% control),[3]; 0.0098 μM,100 % control
same,Viral titer (% control),[3]; 0.0195 μM,100 % control
same,Viral titer (% control),[3]; 0.0391 μM,100 % control
same,Viral titer (% control),[3]; 0.0781 μM,100 % control
same,Viral titer (% control),[3]; 0.1563 μM,100 % control
same,Viral titer (% control),"[3]; 0.3125 μM, listed as S-Calpepin",56.49 % control and 49.6 % control
same,Viral titer (% control),"[3]; 0.625 μM, listed as S-Calpepin",69.04 % control and 44.94 % control
same,Viral titer (% control),"[3]; 1.25 μM, listed as S-Calpepin",38.67 % control and 33.45 % control
same,Viral titer (% control),"[3]; 2.5 μM, listed as S-Calpepin",33.13 % control and 30.16 % control
same,Viral titer (% control),[3]; 100 μM,0 % control
same,RNA - lung,"[4]; day 3 p.i., 1 mg/kg",2.194 SARS-CoV-2 RNA copies/β actin RNA copies and 2.076 SARS-CoV-2 RNA copies/β actin RNA copies and 2.135 SARS-CoV-2 RNA copies/β actin RNA copies and 5.784 SARS-CoV-2 RNA copies/β actin RNA copies and 2.611 SARS-CoV-2 RNA copies/β actin RNA copies
same,RNA - trachea,"[4]; day 3 p.i., 1 mg/kg",2.441 SARS-CoV-2 RNA copies/β actin RNA copies and 1.131 SARS-CoV-2 RNA copies/β actin RNA copies and 3.086 SARS-CoV-2 RNA copies/β actin RNA copies and 1.769 SARS-CoV-2 RNA copies/β actin RNA copies and 1.594 SARS-CoV-2 RNA copies/β actin RNA copies
same,titer - lung,"[4]; day 3 p.i., 1 mg/kg",10.089 log TCID50/g and 9.011 log TCID50/g and 10.277 log TCID50/g and 9.5756 log TCID50/g and 8.981 log TCID50/g
same,titer - trachea,"[4]; day 3 p.i., 1 mg/kg",5.2099 log TCID50/g and 3.791 log TCID50/g and 5.949 log TCID50/g and 7.023 log TCID50/g and 7.625 log TCID50/g
same,RNA - lung,"[4]; day 5 p.i., 1 mg/kg",2.363 SARS-CoV-2 RNA copies/β actin RNA copies and 1.994 SARS-CoV-2 RNA copies/β actin RNA copies and 2.073 SARS-CoV-2 RNA copies/β actin RNA copies and 2.178 SARS-CoV-2 RNA copies/β actin RNA copies and 1.943 SARS-CoV-2 RNA copies/β actin RNA copies
same,RNA - trachea,"[4]; day 5 p.i., 1 mg/kg",1.729 SARS-CoV-2 RNA copies/β actin RNA copies and 2.0935 SARS-CoV-2 RNA copies/β actin RNA copies and 2.166 SARS-CoV-2 RNA copies/β actin RNA copies and 1.097 SARS-CoV-2 RNA copies/β actin RNA copies and 1.597 SARS-CoV-2 RNA copies/β actin RNA copies
same,titer - lung,"[4]; day 5 p.i., 1 mg/kg",7.002 log TCID50/g and 7.059 log TCID50/g and 6.976 log TCID50/g and 7.092 log TCID50/g and 6.453 log TCID50/g
same,titer - trachea,"[4]; day 5 p.i., 1 mg/kg",0 log TCID50/g and 2.787 log TCID50/g
same,titer - trachea,[4]; day 7 p.i.,0 log TCID50/g
same,RNA - lung,"[4]; day 7 p.i., 1 mg/kg",0.6096 SARS-CoV-2 RNA copies/β actin RNA copies and 0.8217 SARS-CoV-2 RNA copies/β actin RNA copies and 0.4837 SARS-CoV-2 RNA copies/β actin RNA copies and 0.3749 SARS-CoV-2 RNA copies/β actin RNA copies and 1.469 SARS-CoV-2 RNA copies/β actin RNA copies
same,RNA - trachea,"[4]; day 7 p.i., 1 mg/kg",0.3702 SARS-CoV-2 RNA copies/β actin RNA copies and -0.0169 SARS-CoV-2 RNA copies/β actin RNA copies and -0.6383 SARS-CoV-2 RNA copies/β actin RNA copies and 0.1661 SARS-CoV-2 RNA copies/β actin RNA copies and 0.09095 SARS-CoV-2 RNA copies/β actin RNA copies
same,titer - lung,"[4]; day 7 p.i., 1 mg/kg",0 log TCID50/g and 1.7736 log TCID50/g
same,viral load in lungs versus untreated group (in words),"[4]; hamsters, day 5 p.i., 1 mg/kg",lower SARS-CoV-2 titers in the treated group compared to the untreated group; also recorded: lower viral loads in their trachea and lungs
same,viral load in trachea versus untreated group (in words),"[4]; hamsters, day 5 p.i., 1 mg/kg",statistically significant difference on TCID50 viral load in trachea; also recorded: reduces viral load in trachea; also recorded: significant reduction of the viral load in trachea on day 5; also recorded: the decrease was only statistically significant in the trachea
same,viral load in trachea versus untreated group (in words),"[4]; hamsters, day 5 p.i., listed as sulfonated Calpeptin, 1 mg/kg",reduces the viral load in the trachea
